# Measured values published in ChEMBL document CHEMBL3046105, “Synthesis and antihyperlipidemic efficiency of berberine-based HMG-CoA reductase inhibitor” (Med Chem Res, 2012).
# The source made the active and inactive calls. The rule behind the calls is not given here.
# What was measured:
# Oryctolagus cuniculus [1] = assay: Reduction in hepatic steatosis and appearance of inflammatory cell in high fat-high cholesterol fed New Zealand Oryctolagus cuniculus (rabbit) at 5 mg/kg, po for 2 months by hematoxylin-eosin staining analysis; assay type: functional, organism-based; parameters: dose 5 mg/kg
# Oryctolagus cuniculus [2] = assay: Reduction in number of lipid droplets in liver cells of high fat-high cholesterol fed New Zealand Oryctolagus cuniculus (rabbit) at 10 to 15 mg/kg, po for 2 months by hematoxylin-eosin staining analysis; assay type: functional, organism-based
# Oryctolagus cuniculus [3] = assay: Antihyperlipidemic activity in high fat-high cholesterol fed New Zealand Oryctolagus cuniculus (rabbit) assessed as low-density lipoprotein-cholesterol level in blood at 15 mg/kg, po for 40 days (reference value: 3.47 +/- 0.44 mmol/l); assay type: functional
# Oryctolagus cuniculus [4] = assay: Antihyperlipidemic activity in high fat-high cholesterol fed New Zealand Oryctolagus cuniculus (rabbit) assessed as low-density lipoprotein-cholesterol level in blood at 5 mg/kg, po for 40 days (reference value: 3.47 +/- 0.44 mmol/l); assay type: functional
# Oryctolagus cuniculus [5] = assay: Antihyperlipidemic activity in high fat-high cholesterol fed New Zealand Oryctolagus cuniculus (rabbit) assessed as triglyceride level in blood at 15 mg/kg, po for 40 days (reference value: 2.07 +/- 0.33 mmol/l); assay type: functional
# Oryctolagus cuniculus [6] = assay: Antihyperlipidemic activity in high fat-high cholesterol fed New Zealand Oryctolagus cuniculus (rabbit) assessed as triglyceride level in blood at 5 mg/kg, po for 40 days (reference value: 2.07 +/- 0.33 mmol/l); assay type: functional
# Oryctolagus cuniculus [7] = assay: Antihyperlipidemic activity in high fat-high cholesterol fed New Zealand Oryctolagus cuniculus (rabbit) assessed as total cholesterol level in blood at 15 mg/kg, po for 40 days (reference value: 8.74 +/- 0.53 mmol/l); assay type: functional
# [8] = Toxicity in Mus musculus Kunming (mouse); assay type: organism-based; settings: in vivo
# Oryctolagus cuniculus [9] = assay: Toxicity in hyperlipidemic New Zealand Oryctolagus cuniculus (rabbit) assessed ashistopathological examination of pancreas at 5 to 15 mg/kg/day, po for 2 months by hematoxylin-eosin staining analysis; assay type: organism-based; parameters: route oral; settings: in vivo
# Oryctolagus cuniculus [10] = assay: Toxicity in hyperlipidemic New Zealand Oryctolagus cuniculus (rabbit) assessed as histopathological examination of kidney at 5 to 15 mg/kg/day, po for 2 months by hematoxylin-eosin staining analysis; assay type: organism-based; parameters: route oral; settings: in vivo
# Oryctolagus cuniculus [11] = assay: Toxicity in hyperlipidemic New Zealand Oryctolagus cuniculus (rabbit) assessed as effect on pancreas coefficient at 5 to 15 mg/kg/day, po for 2 months; assay type: organism-based; parameters: route oral; settings: in vivo
# Oryctolagus cuniculus [12] = assay: Toxicity in high fat-high cholesterol fed New Zealand Oryctolagus cuniculus (rabbit) assessed as mortality at 15 mg/kg, po for 40 days; assay type: organism-based; parameters: dose 15 mg/kg, route oral; settings: in vivo, 960 h
# Oryctolagus cuniculus [13] = assay: Antihyperlipidemic activity in high fat-high cholesterol fed New Zealand Oryctolagus cuniculus (rabbit) assessed as high-density lipoprotein-cholesterol level in blood at 10 mg/kg, po for 40 days (reference value: 0.69 +/- 0.02 mmol/l); assay type: functional
# Oryctolagus cuniculus [14] = assay: Toxicity in hyperlipidemic New Zealand Oryctolagus cuniculus (rabbit) assessed as effect on heart coefficient at 5 to 15 mg/kg/day, po for 2 months; assay type: organism-based; parameters: route oral; settings: in vivo
# Oryctolagus cuniculus [15] = assay: Toxicity in hyperlipidemic New Zealand Oryctolagus cuniculus (rabbit) assessed as effect on liver coefficient at 5 to 15 mg/kg/day, po for 2 months; assay type: organism-based; parameters: route oral; settings: in vivo
# Oryctolagus cuniculus [16] = assay: Toxicity in hyperlipidemic New Zealand Oryctolagus cuniculus (rabbit) assessed as total bilirubin level at 10 mg/kg/day, po for 2 months (reference value: 28.45 +/- 11.55 Umol/l); assay type: organism-based; parameters: route oral; settings: in vivo
# Oryctolagus cuniculus [17] = assay: Toxicity in hyperlipidemic New Zealand Oryctolagus cuniculus (rabbit) assessed as total bilirubin level at 15 mg/kg/day, po for 2 months (reference value: 28.45 +/- 11.55 Umol/l); assay type: organism-based; parameters: route oral; settings: in vivo
# Oryctolagus cuniculus [18] = assay: Toxicity in hyperlipidemic New Zealand Oryctolagus cuniculus (rabbit) assessed as alanine aminotransferase level at 5 mg/kg/day, po for 2 months (reference value: 92.14 +/- 14.3 U/l); assay type: organism-based; parameters: route oral; settings: in vivo
compound,measurement,setting,value
CCCCCCCCCCCCCCCCc1c2c(OC)c(OC)ccc2cc2[n+]1CCc1cc3c(cc1-2)OCO3.[Cl-] [8-HEXADECYL-BERBERINE CHLORIDE],inhibition,Oryctolagus cuniculus [1],Active
same,inhibition,Oryctolagus cuniculus [2],Active
same,Activity,Oryctolagus cuniculus [3],2.05e+06 nmol/L
same,Activity,Oryctolagus cuniculus [4],2.67e+06 nmol/L
same,Activity,Oryctolagus cuniculus [5],1.25e+06 nmol/L
same,Activity,Oryctolagus cuniculus [6],1.95e+06 nmol/L
same,Activity,Oryctolagus cuniculus [7],2.28e+06 nmol/L
same,LD50,[8],> 1000 mg/kg
same,Activity,Oryctolagus cuniculus [9],Non-toxic
same,Activity,Oryctolagus cuniculus [10],Non-toxic
same,Activity,Oryctolagus cuniculus [11],Non-toxic
same,Activity,Oryctolagus cuniculus [12],Non-toxic
same,Activity,Oryctolagus cuniculus [13],720000 nmol/L
same,Activity,Oryctolagus cuniculus [14],Non-toxic
same,Activity,Oryctolagus cuniculus [15],Non-toxic
same,Activity,Oryctolagus cuniculus [16],13.3 µmol/L
same,Activity,Oryctolagus cuniculus [17],12.8 µmol/L
same,Activity,Oryctolagus cuniculus [18],82.36 U/L
